This passage reports IC50 results from patent publication US8476298B2 (Exelixis, Inc., priority 2003, dated 2013).

Where two headings read alike, the source gives them in different places.

The target of assay [1] is T1, KDR (baculovirus expressed human KDR kinase domain D807-V1356) (Homo sapiens, UniProt P35968).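 Further: Luciferase-coupled chemiluminescent kinase assay, activity read as percent ATP left after 4 h reaction at ambient temperature, ATP near KM, 10-point dose-response in 384-well plates.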
T1 construct: human KDR kinase domain D807-V1356; host or cells: baculovirus expression
T1 sequence (P35968 807-1356): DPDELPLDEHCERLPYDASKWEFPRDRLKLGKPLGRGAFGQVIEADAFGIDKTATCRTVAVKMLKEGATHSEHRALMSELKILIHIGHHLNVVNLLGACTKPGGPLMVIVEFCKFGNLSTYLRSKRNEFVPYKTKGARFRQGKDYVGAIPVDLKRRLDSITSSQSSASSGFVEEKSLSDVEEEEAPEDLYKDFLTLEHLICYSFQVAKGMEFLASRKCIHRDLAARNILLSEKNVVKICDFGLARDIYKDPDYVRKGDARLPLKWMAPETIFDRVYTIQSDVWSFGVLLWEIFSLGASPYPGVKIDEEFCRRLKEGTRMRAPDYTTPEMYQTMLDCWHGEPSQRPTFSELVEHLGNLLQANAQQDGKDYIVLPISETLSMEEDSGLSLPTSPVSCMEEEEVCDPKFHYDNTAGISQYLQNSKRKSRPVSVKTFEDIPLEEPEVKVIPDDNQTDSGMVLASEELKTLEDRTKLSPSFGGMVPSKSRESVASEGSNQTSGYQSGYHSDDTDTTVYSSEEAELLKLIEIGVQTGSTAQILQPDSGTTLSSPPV
In words: biochemical.

Assay [2] deals with T2, c-Met (baculovirus expressed human c-Met kinase domain P948-S1343) (Homo sapiens, UniProt P08581).
T2 construct: human c-Met kinase domain P948-S1343; host or cells: baculovirus expression
T2 sequence (P08581 1011-1343 limits assumed): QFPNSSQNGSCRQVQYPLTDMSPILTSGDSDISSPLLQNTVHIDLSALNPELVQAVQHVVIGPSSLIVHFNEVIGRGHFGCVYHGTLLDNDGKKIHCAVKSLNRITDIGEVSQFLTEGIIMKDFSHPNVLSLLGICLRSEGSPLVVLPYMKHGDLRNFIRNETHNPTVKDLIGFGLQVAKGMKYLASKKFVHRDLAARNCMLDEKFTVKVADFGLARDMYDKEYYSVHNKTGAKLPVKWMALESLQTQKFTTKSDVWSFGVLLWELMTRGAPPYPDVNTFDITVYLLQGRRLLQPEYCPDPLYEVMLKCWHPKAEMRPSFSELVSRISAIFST
In words: c-Met Luciferase-Coupled Chemiluminescent Kinase assay (LCCA).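 Further: kinase activity read as percent ATP left after reaction, by luciferase-luciferin chemiluminescence, with 1 µM ATP and 1 µM poly-EY substrate, 2 h at ambient temperature, 10-point dose-response.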 The class given is biochemical.

Where [3] appears, read: Table 4, inhibition as IC50 class.

As to `COc1cc2nccc(Oc3ccc(N4CCN(Cc5ccccc5)CC4=O)cc3)c2cc1OC` [Example 116, 1-(4-{[6,7-bis(methyloxy)quinolin-4-yl]oxy}phenyl)-4-(phenylmethyl)piperazin-2-one], the concentration for half-maximal inhibition (IC50) in assay [1] and in assay [2] was 500 to 5000 nM in each case.
Turning to `COc1cc2nccc(Oc3cc4sc(N(C)CCc5ccccc5)nc4cc3F)c2cc1OC` [Entry 83], in assay [2], the IC50 (in general, the concentration that inhibits the measured activity by half) lay in the range of 500 to 5000 nM.
`COc1cc2nccc(Oc3ccc(NC4=NC(Cc5ccccc5)CO4)cc3)c2cc1OC` (stereo not drawn) [Example 114, N-(4-{[6,7-bis(methyloxy)quinolin-4-yl]oxy}phenyl)-4-(phenylmethyl)-4,5-dihydro-1,3-oxazol-2-amine]: the IC50 in assay [1] was in the range of 50 to 500 nM; in assay [2], 500 to 5000 nM.
On to `COc1cc2nccc(Oc3ccc(NC(=O)C(C)NCc4ccccc4)cc3)c2cc1OC` (stereo not drawn) [Example 117, N1-(4-{[6,7-bis(methyloxy)quinolin-4-yl]oxy}phenyl)-N2-(phenylmethy)alaninamide], for which the IC50 in assay [1] and in assay [2] was 500 to 5000 nM each time.
As for `COc1cc2nccc(Oc3ncc(NC(=O)C(=O)NCCc4ccccc4)cc3Cl)c2cc1OC` [Entry 69], the half-inhibitory concentration (IC50) in assay [2] lay in the range of 500 to 5000 nM.
`COc1cc2nccc(Oc3ccc(NC(=O)C(=O)N[C@H]4CCc5ccccc5C4)cc3F)c2cc1OC` [Entry 62] had a 50% inhibitory concentration (IC50) in assay [2] of 500 to 5000 nM.
As for `COc1cc2nccc(Oc3ccc(NC(=O)C(CC(C)C)N(C)Cc4ccccc4)cc3)c2cc1OC` (stereo not drawn) [Example 120, N1-(4-{[6,7-bis(methyloxy)quinolin-4-yl]oxy}phenyl)-N2-methyl-N2-(phenylmethyl) leucinamide], the IC50 in assay [1] and in assay [2] was 500 to 5000 nM in each case.
With `COc1cc2nccc(Oc3ccc(NC(=O)C4(C(=O)Nc5cccc(CN6CCCC6)c5)CC4)cc3)c2cc1OC` [Example 401, N-(4-{[6,7-bis(methyloxy)quinolin-4-yl]oxy}phenyl)-N′-[3-(pyrrolidin-1-ylmethyl)phenyl]cyclopropane-1,1-dicarboxamide], the IC50 in assay [1] and in assay [2] was below 50 nM throughout.
In turn, `COc1cc2nccc(Oc3ncc(NC(=O)CNCc4ccccc4)cc3Cl)c2cc1OC` [Entry 93] registered a concentration for half-maximal inhibition (IC50) in assay [2] of 500 to 5000 nM.
With `COc1cc2nccc(Oc3ncc(NC(=O)CC(=O)N(C)c4ccc(F)cc4)cc3Cl)c2cc1OC` [Example 253, N′-(6-{[6,7-bis(methyloxy)quinolin-4-yl]oxy}-5-chloropyridin-3-yl)-N-(4-fluorophenyl)-N-methylpropanediamide], the IC50 in assay [1] (setting [3]) fell in the range of 500 to 5000 nM; in assay [2] (setting [3]), 50 to 500 nM.
Regarding `COc1cc2nccc(Oc3ncc(NC(=O)C4(C(=O)NCCc5ccccc5)CC4)cc3Cl)c2cc1OC` [Example 302, N-(6-{[6,7-bis(methyloxy)quinolin-4-yl]oxy}-5-chloropyridin-3-yl)-N′-(2-phenylethyl)cyclopropane-1,1-dicarboxamide], the IC50 in assay [1] and in assay [2] was 500 to 5000 nM in each case.
As for `CNc1cc(Oc2ccc(NC(=O)C3(C(=O)Nc4ccc(F)cc4)CC3)cc2F)c2cc(OC)c(OC)cc2n1` [Example 341, N-(3-fluoro-4-{[2-(methylamino)-6,7-bis(methyloxy)quinolin-4-yl]oxy}phenyl)-N′-(4-fluorophenyl)cyclopropane-1,1-dicarboxamide], the IC50 in assay [1] and in assay [2] was 500 to 5000 nM in each case.
For `COc1cc2nccc(Oc3ncc(NC(=O)CN(Cc4ccccc4)C(=O)OC(C)(C)C)cc3Cl)c2cc1OC` [Entry 92], the 50% inhibitory concentration (IC50) in assay [2] lay within 500 to 5000 nM.
In the case of `COc1cc2nc(SC)cc(Oc3ccc(NC(=O)C4(C(=O)Nc5ccc(F)cc5)CC4)cc3F)c2cc1OC` [Example 338, N-(4-{[6,7-bis(methyloxy)-2-(methylthio)quinolin-4-yl]oxy}-3-fluorophenyl)-N′-(4-fluorophenyl)cyclopropane-1,1-dicarboxamide], the half-inhibitory concentration (IC50) in assay [1] and in assay [2] was 500 to 5000 nM throughout.
On to `CCN(CC)CCOc1cc2ncnc(Oc3ccc(NC(=O)C4(C(=O)Nc5ccc(F)cc5)CCC4)cc3F)c2cc1OC` [Example 363, N-(4-{[7-{[2-(diethylamino)ethyl]oxy}-6-(methyloxy)quinazolin-4-yl]oxy}-3-fluorophenyl)-N′-(4-fluorophenyl)cyclobutane-1,1-dicarboxamide], for which the IC50 in assay [1] and in assay [2] was below 50 nM each time.
On to `COc1cc2nc(C)nc(Oc3ccc(NC(=O)C4(C(=O)Nc5ccc(F)cc5)CC4)cc3)c2cc1OC` [Example 339, N-(4-fluorophenyl)-N′-(4-{[2-methyl-6,7-bis(methyloxy)quinazolin-4-yl]oxy}phenyl)cyclopropane-1,1-dicarboxamide], for which the half-inhibitory concentration (IC50) in assay [1] and in assay [2] was 500 to 5000 nM throughout.
In assay [2], `COc1cc2nccc(Oc3cc4sc(NCc5cccc(C(F)(F)F)c5)nc4cc3F)c2cc1OC` [Entry 85] came in with an IC50 of 500 to 5000 nM.
In assay [2], `COc1cc2nccc(Oc3ncc(NC(=O)CC(=O)Cc4ccccc4)cc3Cl)c2cc1OC` [Entry 79] had an IC50 of 500 to 5000 nM.
As to `COc1cc2nccc(Oc3cc4sc(NCCOc5ccccc5)nc4cc3F)c2cc1OC` [Entry 81], the concentration for half-maximal inhibition (IC50) in assay [2] was in the range of 50 to 500 nM.
Consider `COc1cc2nccc(Oc3ccc(NC(=O)[C@H](CC(C)C)NCc4ccccc4)cc3)c2cc1OC` [Example 119, N1-(4-{[6,7-bis(methyloxy)quinolin-4-yl]oxy}phenyl)-N2-(phenylmethyl)leucinamide], for which the IC50 in assay [1] and in assay [2] was 500 to 5000 nM each time.
`COc1cc2nccc(Oc3ncc(NC(=O)CC(=O)Nc4ccc(Cl)cc4)cc3Cl)c2cc1OC` [Entry 107] gave an IC50 in assay [2] of 50 to 500 nM.
For `COc1cc2nccc(Oc3ccc(S(=O)(=O)N(C)CCCc4ccccc4)cc3F)c2cc1OC` [Entry 25], the 50% inhibitory concentration (IC50) in assay [2] is 500 to 5000 nM.
Take `COc1cc2nccc(Oc3ncc(NC(=O)CC(=O)Nc4cccc(C(F)(F)F)c4)cc3Cl)c2cc1OC` [Entry 87]: the half-inhibitory concentration (IC50) in assay [2] is 500 to 5000 nM.
Turning to `COc1cc2nccc(Oc3ncc(NC(=O)CC(=O)Nc4ccc(F)cc4F)cc3Cl)c2cc1OC` [Example 252, N-(6-{[6,7-bis(methyloxy)quinolin-4-yl]oxy}-5-chloropyridin-3-yl)-N′-(2,4-difluorophenyl)propanediamide], the IC50 in assay [1] (setting [3]) is 500 to 5000 nM; in assay [2] (setting [3]), below 50 nM.
For the compound `COc1cc2c(Oc3ccc(NC(=O)[C@]4(C(=O)Nc5ccc(F)cc5)C[C@H]4C)cc3F)ncnc2cc1OCCCN1CCOCC1` [Example 347, (1R,2R)-N-[3-fluoro-4-({6-(methyloxy)-7-[(3-morpholin-4-ylpropyl)oxy]quinazolin-4-yl}oxy)phenyl]-N′-(4-fluorophenyl)-2-methylcyclopropane-1,1-dicarboxamide], the half-inhibitory concentration (IC50) in assay [1] and in assay [2] was below 50 nM each time.
In assay [2], `COc1cc2nccc(Oc3cc4sc(NCCc5cccc(C(F)(F)F)c5)nc4cc3F)c2cc1OC` [Entry 86] registered a 50% inhibitory concentration (IC50) of 500 to 5000 nM.
Consider `CO/N=C(\C)C(=O)Nc1ccc(Oc2ccnc3cc(OC)c(OC)cc23)cc1` [Example 108, (2E)-N-(4-{[6,7-bis(methyloxy)quinolin-4-yl]oxy}phenyl)-2-[(methyloxy)imino] propanamide], for which the IC50 in assay [1] and in assay [2] was 50 to 500 nM each time.
As to `COc1cc2nccc(Oc3ccc(N(Cc4ccccc4)S(=O)(=O)NCc4ccccc4)cc3F)c2cc1OC` [Entry 66], the IC50 in assay [2] lay in the range of 500 to 5000 nM.
Turning to “N-{3-fluoro-4-[(7-(methyloxy)-6- {[(1-methylpiperidin-4- yl)methyl]oxy}quinazolin-4- yl)oxy]phenyl}-N′-(4- fluorophenyl)cyclopropane-1,1- dicarboxamide [Entry 31]”, the half-inhibitory concentration (IC50) in assay [2] lay in the range of 500 to 5000 nM.
On the same count and under the same terms, as for `COc1cc2nccc(Oc3cc4sc(NCCN5CCCC5)nc4cc3F)c2cc1OC` [Entry 84], the figure is 500 to 5000 nM.
On to `COc1cc2nccc(Oc3ccc(NC(=O)[C@@H]4CCCN4Cc4ccccc4)cc3)c2cc1OC` [Example 111, N-(4-{[6,7-bis(methyloxy)quinolin-4-yl]oxy}phenyl)-1-(phenylmethyl)prolinamide], for which the IC50 in assay [1] and in assay [2] was 500 to 5000 nM throughout.
Regarding `CCO/N=C(\C)C(=O)Nc1ccc(Oc2ccnc3cc(OC)c(OC)cc23)cc1` [Example 109, (2E)-N-(4-{[6,7-bis(methyloxy)quinolin-4-yl]oxy}phenyl)-2-[(ethyloxy)imino] propanamide], the IC50 in assay [1] was below 50 nM; in assay [2], 50 to 500 nM.
`COc1cc2nccc(Oc3ccc(NC(=O)C4(C(=O)Nc5cccc(CN6CCCCC6)c5)CC4)cc3)c2cc1OC` [Example 400, N-(4-{[6,7-bis(methyloxy)quinolin-4-yl]oxy}phenyl)-N′-[3-(piperidin-1-ylmethyl)phenyl]cyclopropane-1,1-dicarboxamide]: the IC50 in assay [1] was below 50 nM; in assay [2], 50 to 500 nM.
Consider `COc1cc2nccc(Oc3ccc(NC(=O)C(C)N(C)Cc4ccccc4)cc3)c2cc1OC` (stereo not drawn) [Example 118, N1-(4-{[6,7-bis(methyloxy)quinolin-4-yl]oxy}phenyl)-N2-methyl-N2-(phenylmethyl) alaninamide], for which the IC50 in assay [1] and in assay [2] was 500 to 5000 nM each time.
Consider `COc1cc2c(Oc3ccc(NC(=O)C(=O)NCc4ccc(Cl)cc4)cc3F)ccnc2cc1OCC1CCNCC1` [Example 268, N-[(4-chlorophenyl)methyl]-N′-[3-fluoro-4-({6-(methyloxy)-7-[(piperidin-4-ylmethyl)oxy]quinolin-4-yl}oxy)phenyl]ethanediamide], for which the half-maximal inhibitory concentration (IC50) in assay [1] (setting [3]) and in assay [2] (setting [3]) was below 50 nM in each case.
In the case of `COc1cc2nccc(Oc3ccc(NC(=O)[C@@H](NCc4ccccc4)C(C)C)cc3)c2cc1OC` [Example 121, N1-(4-{[6,7-bis(methyloxy)quinolin-4-yl]oxy}phenyl)-N2-(phenylmethyl)valinamide], the IC50 in assay [1] and in assay [2] was 500 to 5000 nM each time.
Compound `COc1cc2nccc(Oc3ccc(NC(=O)CN(C)CCc4cccc(C(F)(F)F)c4)cc3F)c2cc1OC` [Entry 100] showed an IC50 in assay [2] of 500 to 5000 nM.
`COc1cc2nccc(Oc3ccc(N4CCN(C(=O)Cc5ccccc5)C4=O)cc3F)c2cc1OC` [Entry 6] came in with an IC50 in assay [2] of 50 to 500 nM.
In assay [2], `COc1cc2nccc(Oc3cc4sc(NC(=O)CCc5ccccc5)nc4cc3F)c2cc1OC` [Entry 53] registered an IC50 of 500 to 5000 nM.
